The results in this text go back to patent US8906911B2, “Chemokine receptor antagonists” (AbbVie Inc., priority 2012, dated 2014).

Read-outs that look alike come from different tables or passages of the source.

One test deals with rat CCR2 (Rattus norvegicus (Rat), UniProt O55193). As to the kind of experiment: Inhibition of native agonist (rat MCP-1)-induced intracellular calcium release, calcium flux assay in CHO cells expressing rat CCR2 and Gα16. The note with it: read-out: rCCR2 Kb. In kind it is cell-based. The source says: (§1) CHO cells expressing human CCR2B were generated as follows. cDNA for human CCR2B (cloned from human blood) was cloned into plasmid pcDNA3.1 (from Invitrogen). The resulting plasmids were separately transfected into CHO cells expressing human Gα16 (from Molecular Devices). […] CHO cells expressing rat CCR2 were generated as follows. cDNA for rat CCR2 (cloned from rat macrophage) was cloned into plasmid pEF-flag (from Chinese Academy of Science). The resulting plasmids were transfected into CHO cells expressing human Gα16 (from […]).
Sequence of rat CCR2 (O55193 whole entry): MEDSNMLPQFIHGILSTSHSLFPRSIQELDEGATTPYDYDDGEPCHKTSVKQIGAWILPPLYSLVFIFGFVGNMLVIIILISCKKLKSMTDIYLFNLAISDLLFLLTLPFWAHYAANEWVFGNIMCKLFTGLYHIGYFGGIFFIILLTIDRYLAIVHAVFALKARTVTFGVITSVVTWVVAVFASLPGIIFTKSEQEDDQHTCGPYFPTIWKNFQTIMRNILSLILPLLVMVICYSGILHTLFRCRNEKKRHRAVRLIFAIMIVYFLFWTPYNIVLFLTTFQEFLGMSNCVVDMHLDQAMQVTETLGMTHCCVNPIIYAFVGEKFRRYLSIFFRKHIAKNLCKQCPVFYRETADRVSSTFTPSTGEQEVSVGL
(§2) Inhibition of Native Agonist-Induced Intracellular Calcium Release in Cells Expressing hCCR2B or rCCR2
(§3) Calcium flux assays were performed in CHO cells expressing human CCR2B and Gα16 coupling protein, or rat CCR2 and Gα16 coupling protein. All compounds were dissolved in DMSO and assays run at a final DMSO concentration of 0.25% (v/v). Human MCP-1 was purchased from PeproTech and used at a final assay concentration of 2 nM, while rat MCP-1 was purchased from R&D and used at a final assay concentration of 4 nM. Assays with cells expressing human CCR2B were performed with human MCP-1, while assays with cells expressing rat CCR2 were performed with rat MCP-1.
(§4) Briefly, cells were cultured overnight in a microtiter plate at 8000 per well. The next day, the resultant adherent cells were incubated in assay buffer (20 mM HEPES, pH 7.4, 0.1% bovine serum albumin, and 2.5 mM probenocid in Hank's Buffered Saline Solution) containing Calcium 4 dye (Molecular Probes) at 37° C. for 60 minutes. Calcium flux assays were performed on a FLIPR^Tetra instrument (Molecular Devices) by adding compound to the cells followed by addition of native agonist and measuring the change in fluorescence as a function of time. Maximal and minimal values for fluorescence were determined using native agonist (2 nM MCP-1) for human or rat CCR2, or buffer addition, respectively. Fluorescence values were used to calculate the percent inhibition at a given compound concentration and the data fit to a sigmoidal curve in a semi-log plot to determine IC50 values. The Kb value is calculated as Kb=IC50/(1+[agonist]/EC50), where [agonist] is the concentration of agonist used and EC50 is the agonist potency determined in the previous experiments. Mean Kb values and IC50 of the compounds assayed are reported in Table 2 and Table 3 respectively.
On the technique in general: Calcium assays in cells follow changes in intracellular calcium, usually with a dye or a luminescent sensor.

The target of another test is human CCR2B (Homo sapiens (Human), UniProt P41597). As to the kind of experiment: Inhibition of native agonist (human MCP-1)-induced intracellular calcium release, calcium flux assay in CHO cells expressing human CCR2B and Gα16. In kind it is cell-based. Particulars: for IC50: read-out: hCCR2B IC50.
Sequence of human CCR2B (P41597 other isoform, or with tags, fused parts or gaps): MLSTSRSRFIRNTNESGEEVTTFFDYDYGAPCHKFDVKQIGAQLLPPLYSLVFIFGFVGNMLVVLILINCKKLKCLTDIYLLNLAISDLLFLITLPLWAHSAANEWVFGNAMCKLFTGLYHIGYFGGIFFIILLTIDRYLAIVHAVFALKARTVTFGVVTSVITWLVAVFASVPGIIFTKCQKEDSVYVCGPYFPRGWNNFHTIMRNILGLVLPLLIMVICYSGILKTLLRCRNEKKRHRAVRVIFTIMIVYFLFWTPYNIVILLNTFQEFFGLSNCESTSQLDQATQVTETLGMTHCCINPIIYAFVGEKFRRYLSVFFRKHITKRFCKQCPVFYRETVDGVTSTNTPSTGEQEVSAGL
Excerpt: as §1, §2, §3, §4

In the case of `CO[C@@H]1COCC[C@@H]1N[C@@H]1C[C@H]2CCC[C@@]2(C(=O)N2C[C@@H]3C[C@H]2CN3c2ccnc(Cl)c2)C1` [Example 35, 1,5-anhydro-3-{[(2R,3aR,6aR)-3a-{[(1S,4S)-5-(2-chloropyridin-4-yl)-2,5-diazabicyclo[2.2.1]hept-2-yl]carbonyl}octahydropentalen-2-yl]amino}-2,3-dideoxy-4-O-methyl-D-erythro-pentitol], the Kb at rat CCR2 stood at 240 nM; at human CCR2B (read-out: hCCR2B Kb) it was 682 nM. Also, the 50% inhibitory concentration (IC50) (commonly the midpoint of a concentration-inhibition curve) on human CCR2B (calcium flux, human MCP-1 2 nM) amounted to 2780 nM.
For the compound `CO[C@@H]1COCC[C@@H]1N(C)[C@@H]1C[C@H]2CCC[C@@]2(C(=O)N2C[C@@H]3C[C@H]2CN3c2cccc(C(F)(F)F)c2C#N)C1` [Example 54, 1,5-anhydro-3-{[(2R,3aR,6aR)-3a-({(1S,4S)-5-[2-cyano-3-(trifluoromethyl)phenyl]-2,5-diazabicyclo[2.2.1]hept-2-yl}carbonyl)octahydropentalen-2-yl](methyl)amino}-2,3-dideoxy-4-O-methyl-D-erythro-pentitol], the figures for the Kb on rat CCR2 and on human CCR2B (read-out: hCCR2B Kb) were 2310 nM and 682 nM, respectively. Moreover, on human CCR2B, the IC50 was determined as 2780 nM.
For the compound `CO[C@@H]1COCC[C@@H]1N[C@@H]1C[C@H]2CCC[C@@]2(C(=O)N2C[C@@H]3C[C@H]2CN3c2cc(C#N)cc(C(F)(F)F)c2)C1` [Example 42, 1,5-anhydro-3-{[(2R,3aR,6aR)-3a-({(1S,4S)-5-[3-cyano-5-(trifluoromethyl)phenyl]-2,5-diazabicyclo[2.2.1]hept-2-yl}carbonyl)octahydropentalen-2-yl]amino}-2,3-dideoxy-4-O-methyl-D-erythro-pentitol], the Kb on rat CCR2 was determined as 26 nM. Also, on human CCR2B, the Kb was determined as 199 nM and the concentration for half-maximal inhibition (IC50) is 812 nM.
On to `CO[C@@H]1COCC[C@H]1N[C@@H]1C[C@H]2CCC[C@@]2(C(=O)N2C[C@H]3C[C@@H]2CN3c2cc(C(F)(F)F)ccn2)C1` [Example 4, 1,5-anhydro-2,3-dideoxy-4-O-methyl-3-{[(2R,3aR,6aR)-3a-({(1R,4R)-5-[4-(trifluoromethyl)pyridin-2-yl]-2,5-diazabicyclo[2.2.1]hept-2-yl}carbonyl)octahydropentalen-2-yl]amino}-D-threo-pentitol], for which the values for the Kb at rat CCR2 and on human CCR2B (read-out: hCCR2B Kb) were > 6940 nM and > 6140 nM, respectively. The 50% inhibitory concentration (IC50) at human CCR2B (calcium flux, human MCP-1 2 nM) turned out to be 25000 nM.
As to `CO[C@@H]1COCC[C@H]1N[C@@H]1C[C@H]2CCC[C@@]2(C(=O)N2C[C@@H]3C[C@H]2CN3c2cc(C(F)(F)F)cnn2)C1` (stereo in doubt) [Example 6], the Kb on rat CCR2 was determined as 29 nM.
Turning to `CO[C@@H]1COCC[C@@H]1N[C@@H]1C[C@H]2CCC[C@@]2(C(=O)N2C[C@@H]3C[C@H]2CN3c2ccc(C(F)(F)F)cn2)C1` [Example 34, 1,5-anhydro-2,3-dideoxy-4-O-methyl-3-{[(2R,3aR,6aR)-3a-({(1S,4S)-5-[5-(trifluoromethyl)pyridin-2-yl]-2,5-diazabicyclo[2.2.1]hept-2-yl}carbonyl)octahydropentalen-2-yl]amino}-D-erythro-pentitol], the results for the Kb at rat CCR2 and at human CCR2B (read-out: hCCR2B Kb) were 342 nM and 682 nM, respectively. Further, the IC50 at human CCR2B is 2780 nM.
As to `CO[C@@H]1COCC[C@@H]1N(C)[C@@H]1C[C@H]2CCC[C@@]2(C(=O)N2C[C@@H]3C[C@H]2CN3c2cc(C(F)(F)F)cc(C(F)(F)F)c2)C1` [Example 55, 1,5-anhydro-3-{[(2R,3aR,6aR)-3a-({(1S,4S)-5-[3,5-bis(trifluoromethyl)phenyl]-2,5-diazabicyclo[2.2.1]hept-2-yl}carbonyl)octahydropentalen-2-yl](methyl)amino}-2,3-dideoxy-4-O-methyl-D-erythro-pentitol], the Kb at rat CCR2 amounted to 175 nM; on human CCR2B (read-out: hCCR2B Kb), 346 nM. For the same compound, the half-maximal inhibitory concentration (IC50) on human CCR2B (calcium flux, human MCP-1 2 nM) stood at 1410 nM.
For the compound `CO[C@@H]1COCC[C@@H]1N[C@@H]1C[C@H]2CCC[C@@]2(C(=O)N2C[C@@H]3C[C@H]2CN3c2cc(C(F)(F)F)cc(C(F)(F)F)c2)C1` [Example 43, 1,5-anhydro-3-{[(2R,3aR,6aR)-3a-({(1S,4S)-5-[3,5-bis(trifluoromethyl)phenyl]-2,5-diazabicyclo[2.2.1]hept-2-yl}carbonyl)octahydropentalen-2-yl]amino}-2,3-dideoxy-4-O-methyl-D-erythro-pentitol], the results for the Kb at rat CCR2 and on human CCR2B (read-out: hCCR2B Kb) were 53 nM and 373 nM, respectively.
Regarding `O=C(O)c1cccc(C2CCN([C@H]3C[C@H]4CCC[C@@]4(C(=O)N4C[C@@H]5C[C@H]4CN5c4cc(C(F)(F)F)ccn4)C3)CC2)c1` [Example 9, 3-{1-[(2S,3aR,6aR)-3a-({(1S,4S)-5-[4-(trifluoromethyl)pyridin-2-yl]-2,5-diazabicyclo[2.2.1]hept-2-yl}carbonyl)octahydropentalen-2-yl]piperidin-4-yl}benzoic acid], the figures for the Kb at rat CCR2 and at human CCR2B (read-out: hCCR2B Kb) were 22 nM and 116 nM, respectively. Further, the IC50 at human CCR2B came out at 470 nM.
In the case of `CO[C@@H]1COCC[C@@H]1N[C@@H]1C[C@H]2CCC[C@@]2(C(=O)N2[C@@H]3CC[C@H]2CN(c2cc(C(F)(F)F)ccn2)C3)C1` [Example 8, 1,5-anhydro-2,3-dideoxy-4-O-methyl-3-{[(2R,3aR,6aR)-3a-({(1R,5S)-3-[4-(trifluoromethyl)pyridin-2-yl]-3,8-diazabicyclo[3.2.1]oct-8-yl}carbonyl)octahydropentalen-2-yl]amino}-D-erythro-pentitol], the values for the Kb on rat CCR2 and on human CCR2B (read-out: hCCR2B Kb) were > 6940 nM and > 3550 nM, respectively. Besides, the concentration for half-maximal inhibition (IC50) at human CCR2B (calcium flux, human MCP-1 2 nM) is 14400 nM.
Regarding `CO[C@@H]1COCC[C@@H]1N[C@@H]1C[C@H]2CCC[C@@]2(C(=O)N2C[C@@H]3C[C@H]2CN3c2cccc(C(F)(F)F)c2F)C1` [Example 17, 1,5-anhydro-2,3-dideoxy-3-{[(2R,3aR,6aR)-3a-({(1S,4S)-5-[2-fluoro-3-(trifluoromethyl)phenyl]-2,5-diazabicyclo[2.2.1]hept-2-yl}carbonyl)octahydropentalen-2-yl]amino}-4-O-methyl-D-erythro-pentitol], the Kb on rat CCR2 was found to be 160 nM; on human CCR2B (read-out: hCCR2B Kb), 316 nM. Further, on human CCR2B (calcium flux, human MCP-1 2 nM), the half-maximal inhibitory concentration (IC50) worked out at 1290 nM.
The corresponding values for `CO[C@@H]1COCC[C@@H]1N[C@@H]1C[C@H]2CCC[C@@]2(C(=O)N2C[C@@H]3C[C@H]2CN3c2cc(C)cc(C(F)(F)F)c2)C1` [Example 24, 1,5-anhydro-2,3-dideoxy-4-O-methyl-3-{[(2R,3aR,6aR)-3a-({(1S,4S)-5-[3-methyl-5-(trifluoromethyl)phenyl]-2,5-diazabicyclo[2.2.1]hept-2-yl}carbonyl)octahydropentalen-2-yl]amino}-D-erythro-pentitol] are 116 nM, 341 nM and 1390 nM.
The corresponding values for `CO[C@@H]1COCC[C@H]1N[C@@H]1C[C@H]2CCC[C@@]2(C(=O)N2[C@@H]3CC[C@H]2CN(c2cc(C(F)(F)F)ccn2)C3)C1` [Example 41, 1,5-anhydro-2,3-dideoxy-4-O-methyl-3-{[(2R,3aR,6aR)-3a-({(1R,5S)-3-[4-(trifluoromethyl)pyridin-2-yl]-3,8-diazabicyclo[3.2.1]oct-8-yl}carbonyl)octahydropentalen-2-yl]amino}-D-threo-pentitol] are > 4000 nM, > 6140 nM and 25000 nM.
On to `CO[C@@H]1COCC[C@@H]1N[C@@H]1C[C@H]2CCC[C@@]2(C(=O)N2C[C@@H]3C[C@H]2CN3c2cc(C(F)(F)F)cc(C)n2)C1` [Example 11, 1,5-anhydro-2,3-dideoxy-4-O-methyl-3-{[(2R,3aR,6aR)-3a-({(1S,4S)-5-[6-methyl-4-(trifluoromethyl)pyridin-2-yl]-2,5-diazabicyclo[2.2.1]hept-2-yl}carbonyl)octahydropentalen-2-yl]amino}-D-erythro-pentitol], for which, on rat CCR2, the Kb amounted to 74 nM.
Take `CO[C@@H]1COCC[C@@H]1N[C@@H]1C[C@H]2CCC[C@@]2(C(=O)N2C[C@@H]3C[C@H]2CN3c2cc(C(F)(F)F)cnn2)C1` [Example 5, 1,5-anhydro-2,3-dideoxy-4-O-methyl-3-{[(2R,3aR,6aR)-3a-({(1S,4S)-5-[5-(trifluoromethyl)pyridazin-3-yl]-2,5-diazabicyclo[2.2.1]hept-2-yl}carbonyl)octahydropentalen-2-yl]amino}-D-erythro-pentitol]: the Kb at rat CCR2 turned out to be 7 nM.
With `CN(C1CCOCC1)C1CC2CCCC2(C(=O)N2CCN(c3ccc(C(F)(F)F)cc3)CC2)C1` (stereo not shown) [Compound A, reference compound], the IC50 at human CCR2B (calcium flux, human MCP-1 2 nM) was > 50000 nM.
`O=C(N1CCN(c2ccc(C(F)(F)F)cc2)CC1)C12CCCC1CC(N1CCC(c3ccccc3)CC1)C2` (stereo not shown) [Compound B, reference compound]: the IC50 at human CCR2B (calcium flux, human MCP-1 2 nM) is 28000 nM.
